ChEMBL document CHEMBL1157513, “Enhanced anti-influenza A virus activity of (-)-epigallocatechin-3-O-gallate fatty acid monoester derivatives: effect of alkyl chain length” (Bioorg Med Chem Lett, 2008)

Experiments:
Influenza A virus [1] = assay: Antiviral activity against Influenza A/PR8/34(H1N1)) in dog MDCK cells; type: functional, organism-based; settings: A/Puerto Rico/8/1934(H1N1)
Influenza A virus [2] = assay: Antiviral activity against Influenza (A/PR8/34(H1N1)); type: functional, organism-based; settings: A/Puerto Rico/8/1934(H1N1)
[3] = Cytotoxicity against MDCK cells by MTT assay; type: cell-based, Canis lupus familiaris; settings: dog
[4] = Selectivity, ratio of CC50 for dog MDCK cells to EC50 for Influenza (A/PR8/34(H1N1)) in MDCK cells
[5] = Selectivity, ratio of CC50 for dog MDCK cells to EC50 for Influenza (A/PR8/34(H1N1))

| SMILES | EC50 (Influenza A virus [1]) | EC50 (Influenza A virus [2]) | CC50 [3] | Ratio CC50/EC50 [4] | Ratio CC50/EC50 [5] |
| --- | --- | --- | --- | --- | --- |
| CC(=O)Oc1cc(OC(C)=O)c2c(c1)O[C@H](c1cc(OC(C)=O)c(OC(C)=O)c(OC(C)=O)c1)[C@H](OC(=O)c1cc(OC(C)=O)c(OC(C)=O)c(OC(C)=O)c1)C2 | 77 µM | 8.49 µM | – | – | – |
| O=C(O[C@@H]1Cc2c(O)cc(O)cc2O[C@@H]1c1cc(O)c(O)c(O)c1)c1cc(O)c(O)c(O)c1 [EPIGALOCATECHIN GALLATE] | 94.6 µM | 0.391 µM | 275 µM | 2.91 | 703 |
